Like-named read-outs stand apart in the source and are kept apart here.
Target: T1, Androgen Receptor (Homo sapiens, UniProt P10275)
T1 construct: endogenous in cells; host or cells: VCaP cells
T1 sequence (P10275 1-920): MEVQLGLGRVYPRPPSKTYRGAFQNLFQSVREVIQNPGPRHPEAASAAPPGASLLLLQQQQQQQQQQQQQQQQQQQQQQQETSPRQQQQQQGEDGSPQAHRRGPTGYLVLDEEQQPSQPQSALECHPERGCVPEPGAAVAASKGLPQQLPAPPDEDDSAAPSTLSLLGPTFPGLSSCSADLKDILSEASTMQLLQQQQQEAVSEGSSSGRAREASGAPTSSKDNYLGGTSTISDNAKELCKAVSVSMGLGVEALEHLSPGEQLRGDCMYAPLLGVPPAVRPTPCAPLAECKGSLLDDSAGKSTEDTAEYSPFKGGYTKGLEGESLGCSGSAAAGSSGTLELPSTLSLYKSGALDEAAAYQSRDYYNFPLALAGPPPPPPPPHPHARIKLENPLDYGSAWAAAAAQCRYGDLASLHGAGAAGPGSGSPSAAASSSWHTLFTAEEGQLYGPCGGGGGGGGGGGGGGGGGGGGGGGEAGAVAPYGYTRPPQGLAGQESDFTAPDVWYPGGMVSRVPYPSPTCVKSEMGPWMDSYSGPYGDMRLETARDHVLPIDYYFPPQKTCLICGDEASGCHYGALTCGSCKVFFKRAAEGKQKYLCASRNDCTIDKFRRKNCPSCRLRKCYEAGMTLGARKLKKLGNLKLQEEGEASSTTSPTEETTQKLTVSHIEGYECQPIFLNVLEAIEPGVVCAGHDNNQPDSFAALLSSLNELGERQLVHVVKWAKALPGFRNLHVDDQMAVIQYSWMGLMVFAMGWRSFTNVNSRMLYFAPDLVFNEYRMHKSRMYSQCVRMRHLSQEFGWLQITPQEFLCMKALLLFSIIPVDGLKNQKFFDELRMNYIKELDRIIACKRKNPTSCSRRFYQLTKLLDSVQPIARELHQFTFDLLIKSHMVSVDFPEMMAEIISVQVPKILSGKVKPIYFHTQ
Test: Androgen Receptor ELISA assay (PathScan AR ELISA) in VCaP cells: AR degradation, Dmax and DC50
Type: cell-based
Method in brief: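 VCaP cells, 30,000/well, grown ≥3 days in phenol red-free RPMI with 5% charcoal-stripped FBS; compound added in 0.1% DMSO with 0.1 nM R1881, 7 half-log doses, 24 h. Lysate AR quantified by PathScan sandwich ELISA, HRP/TMB read at 450 nm, giving DC50 and Dmax.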

[1] = read-out: VCaP DC50; concentration that caused 50% Androgen Receptor degradation, VCaP cells (Table 32)
[2] = VCaP, highest percentage of Androgen Receptor degradation observed, VCaP cells (Table 32); read-out: VCaP Dmax (%)
[3] = concentration that caused 50% Androgen Receptor degradation, VCaP cells (Table 32); read-out: VCaP DC50

Row | SMILES | Dmax (VCaP, read-out: VCaP Dmax (%)) | DC50 [1] | Dmax [2] | DC50 [3]
1 | CC(C)(C)[C@H](NC(=O)COCCCCOc1ccc(-c2ccc(N3C(=S)N(c4ccc(C#N)c(C(F)(F)F)c4)C(=O)C3(C)C)c(F)c2)cc1)C(=O)N1C[C@H](O)C[C@H]1C(=O)NCc1ccc(-c2cncs2)cc1 [Example 117, (2S,4R)-1-[(2S)-2-(2-{4-[4-(4-{3-[4-cyano-3-(trifluoromethyl)phenyl]-5,5-dimethyl-4-oxo-2-sulfanylideneimidazolidin-1-yl}-3-fluorophenyl)phen-oxy]butoxy}acetamido)-3,3-dimethylbutanoyl]-4-hydroxy-N-{[4-(1,3-thiazol-5-yl)phenyl]methyl}pyrrolidine-2-carboxamide] | > 71% | < 50 nM |  | 
2 | Cc1ncsc1-c1ccc(CNC(=O)[C@@H]2C[C@@H](O)CN2C(=O)[C@@H](NC(=O)COCCCCOc2ccc(-c3ccc(N4C(=S)N(c5ccc(C#N)c(C(F)(F)F)c5)C(=O)C4(C)C)c(F)c3)cc2)C(C)(C)C)cc1 [Example 118, (2S,4R)-1-[(2S)-2-(2-{4-[4-(4-{3-[4-cyano-3-(trifluoromethyl)phenyl]-5,5-dimethyl-4-oxo-2-sulfanylideneimidazolidin-1-yl}-3-fluorophenyl)phen-oxy]butoxy}acetamido)-3,3-dimethylbutanoyl]-4-hydroxy-N-{[4-(4-methyl-1,3-thiazol-5-yl)phenyl]methyl}pyrrolidine-2-carboxamide] | > 71% | < 50 nM |  | 
3 | Cc1ncoc1-c1ccc(CNC(=O)[C@@H]2C[C@@H](O)CN2C(=O)[C@@H](NC(=O)COCCCCOc2ccc(-c3ccc(N4C(=S)N(c5ccc(C#N)c(C(F)(F)F)c5)C(=O)C45CCC5)cc3)cc2)C(C)(C)C)cc1 [Example 119, (2S,4R)-1-[(2S)-2-(2-{4-[4-(4-{7-[4-cyano-3-(trifluoromethyl)phenyl]-8-oxo-6-sulfanylidene-5,7-diazaspiro[3.4]octan-5-yl}phenyl)phenoxy]butoxy}acetamido)-3,3-dimethylbutanoyl]-4-hydroxy-N-{[4-(4-methyl-1,3-oxazol-5-yl)phenyl]methyl}pyrrolidine-2-carboxamide] | 51 to 70% | < 50 nM |  | 
4 | Cc1ncsc1-c1ccc(CNC(=O)[C@@H]2C[C@@H](O)CN2C(=O)[C@@H](NC(=O)COCCCCOc2ccc(-c3ccc(N4C(=S)N(c5ccc(C#N)c(C(F)(F)F)c5)C(=O)C45CCC5)cc3)cc2)C(C)(C)C)cc1 [Example 120, (2S,4R)-1-[(2S)-2-(2-{4-[4-(4-{7-[4-cyano-3-(trifluoromethyl)phenyl]-8-oxo-6-sulfanylidene-5,7-diazaspiro[3.4]octan-5-yl}phenyl)phenoxy]butoxy}acetamido)-3,3-dimethylbutanoyl]-4-hydroxy-N-{[4-(4-methyl-1,3-thiazol-5-yl)phenyl]methyl}pyrrolidine-2-carboxamide] | > 71% | < 50 nM |  | 
5 | CC(C)(C)[C@H](NC(=O)COCCCCOc1ccc(-c2ccc(N3C(=S)N(c4ccc(C#N)c(Cl)c4)C(=O)C3(C)C)cc2)c(F)c1)C(=O)N1C[C@H](O)C[C@H]1C(=O)NCc1ccc(-c2cnco2)cc1 [Example 121, (2S,4R)-1-[(2S)-2-{2-[4-(4-{4-[3-(3-chloro-4-cyanophenyl)-5,5-dimethyl-4-oxo-2-sulfanylideneimidazolidin-1-yl]phenyl}-3-fluorophenoxy)butoxy]acetamido}-3,3-dimethylbutanoyl]-4-hydroxy-N-{[4-(1,3-oxazol-5-yl)phenyl]methyl}pyrrolidine-2-carboxamide] | > 71% | < 50 nM |  | 
6 | CC(C)(C)[C@H](NC(=O)COCCCCOc1ccc(-c2ccc(N3C(=S)N(c4ccc(C#N)c(C(F)(F)F)c4)C(=O)C3(C)C)cc2)cc1)C(=O)N1C[C@H](O)C[C@H]1C(=O)NCc1ccc(-c2ccn[nH]2)cc1 [Example 122, (2S,4R)-1-[(2S)-2-(2-{4-[4-(4-{3-[4-cyano-3-(trifluoromethyl)phenyl]-5,5-dimethyl-4-oxo-2-sulfanylideneimidazolidin-1-yl}phenyl)phenoxy]butoxy}acetamido)-3,3-dimethylbutanoyl]-4-hydroxy-N-{[4-(1H-pyrazol-5-yl)phenyl]methyl}pyrrolidine-2-carboxamide] | > 71% | < 50 nM |  | 
7 | CC(C)(C)[C@H](NC(=O)COCCCCOc1ccc(-c2ccc(N3C(=S)N(c4ccc(C#N)c(Cl)c4F)C(=O)C3(C)C)cc2)cc1)C(=O)N1C[C@H](O)C[C@H]1C(=O)NCc1ccc(-c2cnco2)cc1 [Example 123, (2S,4R)-1-[(2S)-2-{2-[4-(4-{4-[3-(3-chloro-4-cyano-2-fluorophenyl)-5,5-dimethyl-4-oxo-2-sulfanylideneimidazolidin-1-yl]phenyl}phenoxy)butoxy]acetamido}-3,3-dimethylbutanoyl]-4-hydroxy-N-{[4-(1,3-oxazol-5-yl)phenyl]methyl}pyrrolidine-2-carboxamide] | > 71% | < 50 nM |  | 
8 | CC(C)(C)[C@H](NC(=O)COCCCCOc1ccc(-c2ccc(N3C(=S)N(c4ccc(C#N)c(Cl)c4)C(=O)C34CCC4)cc2)cc1)C(=O)N1C[C@H](O)C[C@H]1C(=O)NCc1ccc(-c2cnco2)cc1 [Example 124, (2S,4R)-1-[(2S)-2-{2-[4-(4-{4-[7-(3-chloro-4-cyanophenyl)-8-oxo-6-sulfanylidene-5,7-diazaspiro[3.4]octan-5-yl]phenyl}phenoxy)butoxy]acetamido}-3,3-dimethylbutanoyl]-4-hydroxy-N-{[4-(1,3-oxazol-5-yl)phenyl]methyl}pyrrolidine-2-carboxamide] | 51 to 70% | < 50 nM |  | 
9 | Cc1cc(N2C(=O)C(C)(C)N(c3ccc(-c4ccc(OCCCCOCC(=O)N[C@H](C(=O)N5C[C@H](O)C[C@H]5C(=O)NCc5ccc(-c6cnco6)cc5)C(C)(C)C)cc4)cc3)C2=S)ccc1C#N [Example 125, (2S,4R)-1-[(2S)-2-{2-[4-(4-{4-[3-(4-cyano-3-methylphenyl)-5,5-dimethyl-4-oxo-2-sulfanylideneimidazolidin-1-yl]phenyl}phenoxy)butoxy]acetamido}-3,3-dimethylbutanoyl]-4-hydroxy-N-{[4-(1,3-oxazol-5-yl)phenyl]methyl}pyrrolidine-2-carboxamide] |  |  | 51 to 70% | < 50 nM
10 | CC(C)(C)[C@H](NC(=O)COCCCCOc1ccc(-c2ccc(N3C(=S)N(c4ccc(C#N)c(F)c4)C(=O)C3(C)C)cc2)cc1)C(=O)N1C[C@H](O)C[C@H]1C(=O)NCc1ccc(-c2cnco2)cc1 [Example 126, (2S,4R)-1-[(2S)-2-{2-[4-(4-{4-[3-(4-cyano-3-fluorophenyl)-5,5-dimethyl-4-oxo-2-sulfanylideneimidazolidin-1-yl]phenyl}phen-oxy)butoxy]acetamido}-3,3-dimethylbutanoyl]-4-hydroxy-N-{[4-(1,3-oxazol-5-yl)phenyl]methyl}pyrrolidine-2-carboxamide] |  |  | 51 to 70% | < 50 nM
11 | Cc1ncsc1-c1ccc(CNC(=O)[C@@H]2C[C@@H](O)CN2C(=O)[C@@H](NC(=O)COc2ccc(Oc3cccc(-c4ccc(N5C(=S)N(c6ccc(C#N)c(C(F)(F)F)c6)C(=O)C5(C)C)cc4)c3)cc2)C(C)(C)C)cc1 [Example 127, (2S,4R)-1-[(2S)-2-(2-{4-[3-(4-{3-[4-cyano-3-(trifluoromethyl)phenyl]-5,5-dimethyl-4-oxo-2-sulfanylideneimidazolidin-1-yl}phenyl)phen-oxy]phenoxy}acetamido)-3,3-dimethylbutanoyl]-4-hydroxy-N-{[4-(4-methyl-1,3-thiazol-5-yl)phenyl]methyl}pyrrolidine-2-carboxamide] | > 71% | < 50 nM |  | 
